Measurements: paper PMC8536627, “Hydrolytic stability of anticancer drugs and one metabolite in the aquatic environment” (Environmental Science and Pollution Research International, 2021)

Legend:
physchem = conditions: for Hydrolytic stability in the preliminary test: pH 4, 7 and 9, 50 °C
Procedure: The incubation was performed in the dark, in order to avoid the influence of the photolysis on degradation of the analytes. The water used for the preparation of buffers was autoclaved, all glassware was clean, flushed with methanol, and dried in high temperature. Samples were closed in glass tubes with a sealed cap. The air from above the solution was removed by a nitrogen stream just before capping. In the preliminary test, solutions of single analytes were prepared in each tested pH: 4, 7, and 9, which is required by the OECD guidelines. There was also a blank sample prepared for each pH. Samples in the preliminary test were prepared in two parallel replicates. Moreover, the complete preliminary test was repeated twice. The preliminary test was performed at 50 °C for 5 days. […] In the case of the extended tests, 7 measuring points were provided during the time of the test. Each measuring point was performed in two parallel replicates. […] The test was conducted for 30 days or to 90 % elimination of a compound. Obtained results were used to determine the hydrolysis rate constant (k) using equation: 1 lnCt/C0=kt
The HPLC-UV/Vis technique was applied to determine the level of hydrolytic degradation of the analytes. In the preliminary test, the control and blank samples were analyzed at the beginning and the end of the test. […] In the extended test, the samples collected in the time intervals were analyzed, and peak areas were compared to those obtained at the beginning of the test. This was used to determine the kinetic of this hydrolysis process by using the Equation 1. In general, each analyte was analyzed by a simple HPLC method with UV/Vis detection. Gemini C18 (Phenomenex, USA), 5 μm, 110 Å, 150 mm × 4.6 mm chromatographic column was applied for each method and three different mobile phases were used (water or 0.1 % HCOOH) mixed with the acetonitrile. The conditions applied during the LC-MS analysis with an ion trap detector for the qualitative analysis of the samples collected after the extended tests at 20 and 70 °C are presented in the Table S2.

[1] = design: method as in Białk-Bielińska et al. [2017]; conditions: ref Białk-Bielińska et al. [2017]; cited from earlier work
[2] = HPLC water with 4 % DMSO, ref Negreira et al. ([2013a]), cited from earlier work
[3] = design: method as in Negreira et al. ([2013b]); conditions: acidification of samples, organic modifier such as 50 % methanol or DMSO, previously tested conditions; ref Negreira et al. ([2013b]); cited from earlier work
[4] = milli-Q water, room temperature, natural pH; ref Franquet-Griell et al. [2017]; cited from earlier work
[5] = ref Gómez-Canela et al. [2015], cited from earlier work

Structure (SMILES): CN(Cc1nc2c(N)nc(N)nc2nc1O)c1ccc(C(=O)N[C@@H](CCC(=O)O)C(=O)O)cc1 [7-OH-MTX, 7-hydroxymethotrexate]
- half-life (physchem; aqueous buffer): ≥ 365 days
- Hydrolytic stability in the preliminary test (physchem; 5 days): hydrolytically stable
- Degradation level in the preliminary test (physchem; pH 4, 50 °C, 5 days, dark): 7%
- Hydrolytic stability under ecotoxicological test conditions [1]: hydrolytically stable
- Photolytic stability under ecotoxicological test conditions [1]: susceptible to photolysis
- Remained intact ([2]; 4 °C, 24 h): 86%
- Concentration decreased to ([2]; 4 °C, after 9 days): around 50%
- Stability in 24 h test ([2]; 15 °C, 24 h): none of the 7-OH-MTX left in the solution
- Degradation level / loss ([2]; 25 °C, 24 h incubation): full degradation
- Stability after acidification and with organic modifier [3]: stable

Structure (SMILES): Cc1ccc(NC(=O)c2ccc(CN3CCN(C)CC3)cc2)cc1Nc1nccc(-c2cccnc2)n1 [IMT, imatinib]
- Hydrolytic stability in the preliminary test (physchem; 5 days): hydrolytically stable

Structure (SMILES): CCCCCOC(=O)Nc1nc(=O)n([C@@H]2O[C@H](C)[C@@H](O)[C@H]2O)cc1F [capecitabine]
- Hydrolytic stability in milli-Q water [4]: stable

Structure (SMILES): O=C(O)CCCc1ccc(N(CCCl)CCCl)cc1 [chlorambucil]
- Remaining part degraded within 24 h ([5]; hard water, initial concentration 10 ng μL^−1, within 24 h): 19%
- Transformed at the beginning of the test ([5]; hard water, initial concentration 10 ng μL^−1): 81%
- Transformation in hard water ([5]; initial concentration 2 ng μL^−1): instant and complete transformation
- Hydrolytic stability in milli-Q water [4]: highly unstable

Structure (SMILES): COc1cccc2c1C(=O)c1c(O)c3c(c(O)c1C2=O)C[C@@](O)(C(C)=O)C[C@@H]3O[C@H]1C[C@H](N)[C@H](O)[C@H](C)O1 [daunorubicin]
- Hydrolytic stability in milli-Q water [4]: highly unstable

Structure (SMILES): COc1cccc2c1C(=O)c1c(O)c3c(c(O)c1C2=O)C[C@@](O)(C(=O)CO)C[C@@H]3O[C@H]1C[C@H](N)[C@H](O)[C@H](C)O1 [doxorubicin]
- Hydrolytic stability in milli-Q water [4]: highly unstable

Structure (SMILES): Nc1ccn([C@@H]2O[C@H](CO)[C@@H](O)C2(F)F)c(=O)n1 [gemcitabine]
- Hydrolytic stability in milli-Q water [4]: stable

Structure (SMILES): CCc1c2c(nc3ccc(OC(=O)N4CCC(N5CCCCC5)CC4)cc13)-c1cc3c(c(=O)n1C2)COC(=O)[C@]3(O)CC [irinotecan]
- Hydrolytic stability in milli-Q water [4]: highly unstable

Structure (SMILES): N[C@@H](Cc1ccc(N(CCCl)CCCl)cc1)C(=O)O [melphalan]
- Hydrolytic stability in milli-Q water [4]: highly unstable

Structure (SMILES): COc1c(C)c2c(c(O)c1C/C=C(\C)CCC(=O)O)C(=O)OC2 [mycophenolic acid]
- Hydrolytic stability in milli-Q water [4]: stable

Structure (SMILES): CC[C@]1(O)C[C@H]2CN(CCc3c([nH]c4ccccc34)[C@@](C(=O)OC)(c3cc4c(cc3OC)N(C=O)[C@H]3[C@@](O)(C(=O)OC)[C@H](OC(C)=O)[C@]5(CC)C=CCN6CC[C@]43[C@@H]65)C2)C1 [vincristine]
- Hydrolytic stability in milli-Q water [4]: highly unstable
